The values that follow come from patent US20250114324A1, “ANTIMICROBIAL MATERIALS AND NANOPARTICLES AND METHODS OF USE THEREOF” (Arizona Board of Regents on behalf of Arizona State …, priority 2022, published 2025).

For data set [1] the following is noted: pH>7; cited from earlier work.
The conditions of data set [2]: cited from earlier work.
A short description of data set [3]: In vitro release profile (dialysis method). Type of data set: physicochemical. The settings on record: for release profile: 37° C. (FIG. 17C). The protocol:
(§1) The chemical stability is measured by detecting remaining phytochemicals' concentrations at different time points using the HPLC system. The release profile is measured using a dialysis method. Briefly, native phytochemicals and NCs are each put into dialysis bags with Molecular Weight Cut Off (MWCO) 6,000-8,000. The dialysis bags are dipped into the dissolution medium composed of 1×PBS and methanol (9:1, v:v). The dissolution medium is stirred at 200 rpm at 4° C. and 22° C. The dissolution medium is changed completely every 2 hours for the first 24 hours, and every 6 hours for the rest 30 days. The amounts of phytochemicals in the release medium are measured using the above HPLC methods.
Using R-NPs as an example, the NPs were stable at both 4° C. and 22° C. (FIG. 17A). Nanoencapsulation increased R's stability (FIG. 17B). Similarly, Q and RQ were also stable at 4° C. and 22° C. after encapsulation. A dialysis method was used to measure R and Q release profiles from NPs at 37° C. […] The release profiles of NPs were even slower at 4° C. and 22° C.

For data set [4], the system named is S. enteritidis (13076), L. monocytogenes (15313), E. coli (48953) and S. aureus (25923). The data set can be described thus: Anti-bacterial assay, Example 2, result stated for the four strains together. The class given is cell-based. Further details: anti-bacterial effects: dose or concentration left out as unconfirmed. As for the experimental part: The concentrations of R and Q in the NPs were characterized by HPLC. Three parallel experiments were performed for each sample, the absorbance of bacteria solution treated with different samples was measured by a microplate reader at a wavelength of 600 nm. S. enteritidis (13076), L. monocytogenes (15313), E. coli (48953) and S. aureus (25923) were used in this study and treated with R-NPs, Q-NPs, RQ-NPs, and CS-coated R-NPs, Q-NPs, and RQ-NPs, respectively. Different concentrations of R-NPs and Q-NPs were investigated. Initially, 50 μg/mL R and R-NPs were used. […] S. enteritidis, L. monocytogenes, E. coli and S. aureus were cultured in broth media under constant shaking at 100 rpm at 37° C. to reach the mid exponential growth phase. The number of bacteria was determined by counting the CFU formed on the agar plate. Bacterial suspensions were diluted to approximately 1×10^4-5 CFU/mL in broth media. The NPs solution (20 μL) was mixed with 180 μL of bacterial suspension in a 96-well plate, and the experiments were performed in triplicates. […]

The subject of data set [5] is E coli (ATCC 43895). In words: Antibacterial activity (absorbance at 595 nm), Example 3. The settings on record: 300 μg/mL R or Q; free RQ 240 μg/mL (FIG. 19B). Type of data set: cell-based. The text has this:
(§2) The antibacterial activity of all NPs and their controls against Salmonella enterica subsp. enterica (S. enterica ATCC 13076), Listeria monocytogenes (L. monocytogenes ATCC 15313), E coli (ATCC 43895) and Staphylococcus aureus subsp. aureus (S. aureus ATCC 25923) were investigated.

Data set [6] deals with L. monocytogenes ATCC 15313. The description is as above. Type of data set: cell-based, Listeria monocytogenes. The following applies: 300 μg/mL R or Q; free RQ 240 μg/mL (FIG. 19C).
Source text: as §2

For data set [7], the system named is L. monocytogenes (15313). The data set can be described thus: Anti-bacterial assay (OD 600 nm, CFU), Example 2. The class given is cell-based. The following applies: 100 μg/mL, 24 h of incubation. The protocol: (§3) The concentrations of R and Q in the NPs were characterized by HPLC. Three parallel experiments were performed for each sample, the absorbance of bacteria solution treated with different samples was measured by a microplate reader at a wavelength of 600 nm. S. enteritidis (13076), L. monocytogenes (15313), E. coli (48953) and S. aureus (25923) were used in this study and treated with R-NPs, Q-NPs, RQ-NPs, and CS-coated R-NPs, Q-NPs, and RQ-NPs, respectively. Different concentrations of R-NPs and Q-NPs were investigated. Initially, 50 μg/mL R and R-NPs were used. […] S. enteritidis, L. monocytogenes, E. coli and S. aureus were cultured in broth media under constant shaking at 100 rpm at 37° C. to reach the mid exponential growth phase. The number of bacteria was determined by counting the CFU formed on the agar plate. Bacterial suspensions were diluted to approximately 1×10^4-5 CFU/mL in broth media. The NPs solution (20 μL) was mixed with 180 μL of bacterial suspension in a 96-well plate, and the experiments were performed in triplicates. The plates were incubated at 37° C. under constant shaking at 100 rpm overnight, and the optical density (OD) at 600 nm was measured on a plate reader.

The subject of data set [8] is S. aureus (25923). The data set can be described thus: Anti-bacterial assay (OD 600 nm, CFU), Example 2. Type of data set: cell-based. The following applies: 100 μg/mL, 24 h of incubation. As for the experimental part:
as §3

Data set [9] relates to S. enteritidis (13076). In words: Anti-bacterial assay (OD 600 nm, CFU), Example 2. Type of data set: cell-based. The settings on record: 100 μg/mL, 24 h of incubation. The protocol:
as §3

Data set [10] deals with E. coli (48953). The data set can be described thus: Anti-bacterial assay (OD 600 nm, CFU), Example 2. The class given is cell-based. The following applies: 100 μg/mL, 24 h of incubation. As for the experimental part: as §3
The conditions of data set [11]: room temperature; cited from earlier work.
The nature of data set [12]: Pharmacokinetics and bioavailability of Q after oral administration to rats. The settings on record: male, Sprague-Dawley, rat, 50 mg/kg. As for the experimental part: Male Sprague-Dawley rats (n=3 per group) weighing 200-250 g were purchased pre-cannulated from Harlan Laboratories (Indianapolis, IN). The rounded tips catheters were surgically implanted into the jugular vein of the rats with the benefits of multiple blood draw. […] Blood was collected via the catheters at hour 0, 1, 2, 3, 4, 6, 8, 10, 14, 24, 36, and 48 into heparinized tubes. Blood Q concentrations were measured using a HPLC system (FIG. 5). Pharmacokinetic parameters were determined on each individual set of data by using a non-compartmental model (Song I, Eur J Clin Pharmacol. 2016; 72:665-670). […] The relative bioavailability Fr at infinity was calculated as Fr=AUCQ-NLC, […]/AUCQ, 0→∞. The half-life (t1/2)=0.693/k. The mean residence time (MRT)=1/k.
Male Sprague-Dawley rats (n=3 per group) weighing 200-250 g and the rounded tips catheters were surgically implanted into the jugular vein of the rats with the benefits of multiple blood draw. […] Blood was collected via the catheters at hour 0, 1, 2, 3, 4, 6, 8, 10, 14, 24, 36, and 48 into heparinized tubes. Blood Q concentrations were measured using an HPLC system (FIG. 21). Pharmacokinetic parameters were determined on each individual set of data by using a non-compartmental model. […] The area under the plasma concentration time curve from time zero to infinity (AUC0→∞) was calculated as AUC0→24 h+Ct/Ke, where Ct was the Q concentration observed at the […] time, and Ke is the apparent elimination rate constant obtained from the terminal slope of the individual plasma concentration-time curves after logarithmic transformation of the plasma concentration values and application of linear regression. The relative bioavailability Fr at infinity was calculated as Fr=AUCQ-NP, 0→∞/AUCQ, 0→∞. The half-life (t1/2)=0.693/k. The mean residence time (MRT)=1/k.

For data set [13] the following is noted: after drinking tea containing catechins at 10 mg/kg body weight; cited from earlier work.
A short description of data set [14]: Stability of nano-encapsulated and native EGCG in 1×PBS at pH 7.4. The class given is physicochemical. The following applies: neutral pH (7.4). The protocol:
Three independent experiments were conducted at each time point.
The degradation rate of EGCG in NLCs and CSNLCs were much slower.
as §1

For data set [15] the following is noted: after drinking 2 cups of green tea; cited from earlier work.

Each structure is given as a SMILES string. Like-named read-outs stand apart in the source and are kept apart here.

Turning to `COc1cc(/C=C/C(=O)CC(=O)/C=C/c2ccc(O)c(OC)c2)ccc1O` [curcumin, Curcumin], the half-life in data set [1] is less than 0.167 h. For the same compound, the solubility in water entry in data set [2] is listed as “less than 0.1 mg/mL”.
As for `Oc1ccc(/C=C/c2cc(O)cc(O)c2)cc1` [R, 3,5,4′-tri-hydroxy-trans-stilbene], the release behavior entry in data set [3] (RES NPs study) is recorded as “burst release”. Also, in [3] (dialysis method), the release profile result is “burst release”. Moreover, the anti-bacterial effects entry in [4] (6 h of incubation) was “significant anti-bacterial effects”; in data set [8] it was “showed anti-bacterial effects”; in [10] it was “showed anti-bacterial effects”. In [4] (FIG. 9), the “anti-bacterial effects of 300 μg/mL compared with 200 μg/mL” value is reported as “significant enhanced anti-bacterial effects”. Also, the growth inhibition result in data set [5] and in data set [6] was “inhibited growth” throughout. Also, the aqueous solubility in [2] was less than 100 µg/mL. Besides, the “growth (CFU formation)” value in [7] is given as “still not shown”; in [8], “significantly decreased the growth”; in data set [9] it was “still not shown”; in data set [10], “significantly decreased the growth”.
On to `O=c1c(O)c(-c2ccc(O)c(O)c2)oc2cc(O)cc(O)c12` [Q], for which, in data set [11], the “dissolution of 20 mg in 10 mL of 1×PBS” value is “not able to be dissolved”. Also, the half-life in data set [12] (in vivo) was 16.7 ± 10.5 h. Further, in data set [12] (po), the highest concentration (Cmax) was 964 ± 536 ng/mL, the Ke amounted to 0.07 ± 0.06 h⁻¹, the mean residence time MRT is 12.1 ± 15.1 h and the Tmax was 2 h. The AUC in data set [12] (po, AUCo→24 h) came to 14600 ± 6270 ng·h/mL. This compound also had an AUC in data set [12] (po, AUCo→∞) of 15300 ± 6090 ng·h/mL. Besides, the release profile entry in [3] (dialysis method) is listed as “burst release”. Also, the release pattern result in data set [3] (dialysis method, release medium (FIG. 4B)) was “burst release pattern”. Also, the growth inhibition entry in data set [5] was “inhibited growth”. Besides, the growth inhibition result in [6] is “inhibited growth”.
In the case of `O=C(O[C@@H]1Cc2c(O)cc(O)cc2O[C@@H]1c1cc(O)c(O)c(O)c1)c1cc(O)c(O)c(O)c1` [EGCG, Epigallocatechin Gallate], in [13], the absolute oral bioavailability result is recorded as “about 0.1%”. Also, the results for the “time to complete degradation” value in data set [14] (4° C.), in data set [14] (25° C.) and in [14] (37° C.) were 24 h, 6 h and 3 h, respectively. Moreover, the “peak plasma EGCG concentration” value in data set [15] is on record as 0.15 UM.
